Laboratory results as given in patent US9062124B2, “GIP-based mixed agonists for treatment of metabolic disorders and obesity” (priority 2008, dated 2015).
Where a SMILES comes first, the peptide text is derived from it. Bridges are numbered along the chain shown (N, C = ends). Where no end group is shown, it is not given here. [ ]: non-standard residue; d: D form. PEG 40 kDa = PEG (40 kDa) covalently attached to Cys; PhLac = O=C(O)[C@@H](O)Cc1ccccc1; Aib = CC(C)(N)C(=O)O

Legend:
Type in all cases: cell-based
glucagon receptor = target: T1, glucagon receptor (Homo sapiens, UniProt P47871); experiment: cAMP synthesis functional assay (firefly luciferase reporter in HEK293 cells), glucagon receptor; conditions: for EC50: Glucagon Receptor EC50, nM
T1 construct: expressed in transfected cells; host or cells: HEK293
T1 sequence (P47871 26-477): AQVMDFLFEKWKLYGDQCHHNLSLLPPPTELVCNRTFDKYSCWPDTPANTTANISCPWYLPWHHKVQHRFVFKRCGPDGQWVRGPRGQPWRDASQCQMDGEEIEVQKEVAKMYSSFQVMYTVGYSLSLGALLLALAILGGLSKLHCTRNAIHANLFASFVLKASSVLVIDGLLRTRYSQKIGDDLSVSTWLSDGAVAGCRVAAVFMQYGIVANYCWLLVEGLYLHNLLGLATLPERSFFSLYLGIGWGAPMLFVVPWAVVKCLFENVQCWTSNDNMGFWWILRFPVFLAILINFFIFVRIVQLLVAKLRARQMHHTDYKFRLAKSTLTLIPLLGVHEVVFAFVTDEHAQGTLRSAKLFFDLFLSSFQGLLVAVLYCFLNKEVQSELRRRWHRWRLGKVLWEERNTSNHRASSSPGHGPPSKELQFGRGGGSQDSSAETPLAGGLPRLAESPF

GLP-1 receptor = target: T2, GLP-1 receptor (Homo sapiens, UniProt P43220); experiment: cAMP synthesis functional assay (firefly luciferase reporter in HEK293 cells), GLP-1 receptor
T2 construct: expressed in transfected cells; host or cells: HEK293
T2 sequence (P43220 24-463, species assumed): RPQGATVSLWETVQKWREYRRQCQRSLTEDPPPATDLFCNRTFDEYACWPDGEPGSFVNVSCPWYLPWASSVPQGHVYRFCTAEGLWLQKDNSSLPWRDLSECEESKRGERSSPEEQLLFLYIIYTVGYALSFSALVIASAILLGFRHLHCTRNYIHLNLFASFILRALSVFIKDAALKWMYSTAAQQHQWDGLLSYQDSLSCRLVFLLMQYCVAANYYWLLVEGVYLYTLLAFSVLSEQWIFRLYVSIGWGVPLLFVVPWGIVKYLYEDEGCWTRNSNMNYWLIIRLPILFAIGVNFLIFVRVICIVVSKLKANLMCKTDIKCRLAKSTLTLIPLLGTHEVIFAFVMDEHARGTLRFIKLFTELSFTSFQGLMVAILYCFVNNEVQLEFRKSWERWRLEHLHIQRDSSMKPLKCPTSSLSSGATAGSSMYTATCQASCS

GIP receptor = target: T3, GIP receptor (Homo sapiens, UniProt P48546); experiment: cAMP synthesis functional assay (firefly luciferase reporter in HEK293 cells), GIP receptor
T3 construct: expressed in transfected cells; host or cells: HEK293
T3 sequence (P48546 22-466): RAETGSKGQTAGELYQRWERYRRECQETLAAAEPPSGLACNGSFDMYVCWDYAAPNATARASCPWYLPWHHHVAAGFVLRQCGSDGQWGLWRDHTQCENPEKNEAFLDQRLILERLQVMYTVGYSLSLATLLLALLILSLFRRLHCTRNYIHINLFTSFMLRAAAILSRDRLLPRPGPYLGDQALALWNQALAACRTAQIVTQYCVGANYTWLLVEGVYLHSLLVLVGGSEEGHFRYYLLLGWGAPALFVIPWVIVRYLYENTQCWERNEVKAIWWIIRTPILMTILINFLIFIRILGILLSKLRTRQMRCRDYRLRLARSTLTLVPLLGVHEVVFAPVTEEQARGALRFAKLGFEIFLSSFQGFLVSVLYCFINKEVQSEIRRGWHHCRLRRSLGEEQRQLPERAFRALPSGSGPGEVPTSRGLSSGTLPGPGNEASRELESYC

[1] = Table 1, relative to the native hormone of the indicated receptor
[2] = Table 4, relative to the native hormone

Glucagon Receptor relative activity (glucagon receptor; [1]) [%] | GLP-1 Receptor relative activity (GLP-1 receptor; [1]) [%] | Compound | EC50 (glucagon receptor; Table 1) [nM] | GIP Receptor relative activity (GIP receptor; [1]) [%] | further results
 |  | CC[C@H](C)[C@H](NC(=O)[C@H](CO)NC(=O)[C@H](Cc1ccc(O)cc1)NC(=O)[C@H](CC(=O)O)NC(=O)[C@H](CO)NC(=O)[C@@H](NC(=O)[C@H](Cc1ccccc1)NC(=O)[C@@H](NC(=O)CNC(=O)[C@H](CCC(N)=O)NC(=O)C(C)(C)NC(=O)[C@@H](N)Cc1ccc(O)cc1)[C@@H](C)O)[C@@H](C)O)C(=O)N[C@@H](Cc1ccc(O)cc1)C(=O)N[C@@H](CC(C)C)C(=O)N[C@@H](CC(=O)O)C(=O)N[C@@H](CCCCN)C(=O)N[C@@H](CCC(N)=O)C(=O)N[C@@H](C)C(=O)N[C@@H](C)C(=O)NC(C)(C)C(=O)N[C@@H](CCC(=O)O)C(=O)N[C@@H](Cc1ccccc1)C(=O)N[C@H](C(=O)N[C@@H](CC(N)=O)C(=O)N[C@@H](Cc1c[nH]c2ccccc12)C(=O)N[C@@H](CC(C)C)C(=O)N[C@@H](CCSC)C(=O)N[C@@H](CC(N)=O)C(=O)NCC(=O)NCC(=O)N1CCC[C@H]1C(=O)N[C@@H](CO)C(=O)N[C@@H](CO)C(=O)NCC(=O)N[C@@H](C)C(=O)N1CCC[C@H]1C(=O)N1CCC[C@H]1C(=O)N1CCC[C@H]1C(=O)N[C@@H](CO)C(=O)N[C@@H](CCCCN)C(N)=O)C(C)C [mt-356] (H-Y[Aib]QGTFTSDYSIYLDKQAA[Aib]EFVNWLMNGGPSSGAPPPSK-NH2; N-terminus assumed) |  |  | Glucagon Receptor relative activity (glucagon receptor; [2]): 126.06%; GLP-1 Receptor relative activity (GLP-1 receptor; [2]): 224.02%; GIP Receptor relative activity (GIP receptor; [2]): 25.66%
 |  | YAPGTFISDYSIAMDKIHQQDFVCWLLAQKGKKNWLKHNITQ-NH2 [mt-104] |  | 0.22 | 
 |  | YAPGTFISDYSIAMDKIHQQDFVNWLLAQKGKKNWLKHNITQ-NH2 [mt-101] |  | 0.06 | 
6.03 | 12.90 | CC[C@H](C)[C@H](NC(=O)[C@H](Cc1ccccc1)NC(=O)[C@H](CCC(=O)O)NC(=O)[C@H](CCCCN)NC(=O)[C@H](CCC(N)=O)NC(=O)[C@H](Cc1c[nH]cn1)NC(=O)[C@@H](NC(=O)[C@@H]1CCC(=O)NCCCC[C@H](NC(=O)[C@H](CO)NC(=O)[C@H](Cc2ccc(O)cc2)NC(=O)[C@H](CC(=O)O)NC(=O)[C@H](CO)NC(=O)[C@@H](NC(=O)[C@H](Cc2ccccc2)NC(=O)[C@@H](NC(=O)CNC(=O)[C@H](CCC(N)=O)NC(=O)[C@H](CO)NC(=O)[C@@H](N)Cc2c[nH]cn2)[C@@H](C)O)[C@@H](C)O)C(=O)N[C@@H](Cc2ccc(O)cc2)C(=O)N[C@@H](CC(C)C)C(=O)N[C@@H](CC(=O)O)C(=O)N1)[C@@H](C)CC)C(=O)N[C@@H](C)C(=O)N[C@@H](Cc1c[nH]c2ccccc12)C(=O)N[C@@H](CC(C)C)C(=O)N[C@@H](CCSC)C(=O)N[C@@H](CC(N)=O)C(=O)N[C@H](C(N)=O)[C@@H](C)O [mt-63] | 3.15 |  | 
0.28 | 0.05 | CC[C@H](C)[C@@H]1NC(=O)[C@@H](NC(=O)[C@H](CC(=O)O)NC(=O)[C@H](CC(C)C)NC(=O)[C@H](Cc2ccc(O)cc2)NC(=O)[C@H](CCCCN)NC(=O)[C@H](CO)NC(=O)[C@H](Cc2ccc(O)cc2)NC(=O)[C@H](CC(=O)O)NC(=O)[C@H](CO)NC(=O)[C@@H](NC(=O)[C@@H](O)Cc2ccccc2)[C@@H](C)O)CCC(=O)NCCCC[C@@H](C(=O)N[C@@H](CC(=O)O)C(=O)N[C@@H](Cc2ccccc2)C(=O)N[C@H](C(=O)N[C@@H](CC(N)=O)C(=O)N[C@@H](Cc2c[nH]c3ccccc23)C(=O)N[C@@H](CC(C)C)C(=O)N[C@@H](CC(C)C)C(=O)N[C@@H](C)C(=O)N[C@@H](CCC(N)=O)C(N)=O)C(C)C)NC(=O)[C@H](CCC(N)=O)NC(=O)[C@H](Cc2c[nH]cn2)NC1=O [mt-114] (H-[PhLac]TSDYSKYLDEIHQKDFVNWLLAQ-NH2; lactam 11-15) |  |  | 
0.13 | 0.07 | CC[C@H](C)[C@H](NC(=O)[C@H](CO)NC(=O)[C@H](Cc1ccc(O)cc1)NC(=O)[C@H](CC(=O)O)NC(=O)[C@H](CO)NC(=O)[C@@H](NC(=O)[C@H](Cc1ccccc1)NC(=O)[C@@H](NC(=O)CN)[C@@H](C)O)[C@@H](C)O)C(=O)N[C@@H](Cc1ccc(O)cc1)C(=O)N[C@@H](CC(C)C)C(=O)N[C@@H](CC(=O)O)C(=O)N[C@H]1CCC(=O)NCCCC[C@@H](C(=O)N[C@@H](CCC(=O)O)C(=O)N[C@@H](Cc2ccccc2)C(=O)N[C@H](C(=O)N[C@@H](CC(N)=O)C(=O)N[C@@H](Cc2c[nH]c3ccccc23)C(=O)N[C@@H](CC(C)C)C(=O)N[C@@H](CC(C)C)C(=O)N[C@@H](C)C(=O)NCC(N)=O)C(C)C)NC(=O)[C@H](C)NC(=O)[C@H](C)NC(=O)[C@H](CCC(N)=O)NC1=O [mt-197] (H-GTFTSDYSIYLDEQAAKEFVNWLLAG-NH2; lactam 13-17; N-terminus assumed) |  |  | 
 | 11.83 | mt-208: glucagon analog peptide, C-terminal amide (Y[Aib]EGTFTSDYSIYLDEQAAKEFVNWLLAGKGKKNWLKHNITQC(PEG 40 kDa)-NH2; lactam 16-20) |  | 4.79 | 

Compound | Glucagon Receptor relative activity (glucagon receptor; [1]) [%] | GLP-1 Receptor relative activity (GLP-1 receptor; [1]) [%] | EC50 (glucagon receptor; Table 1) [nM] | GIP Receptor relative activity (GIP receptor; [1]) [%] | further results
CC[C@H](C)[C@H](NC(=O)[C@H](CO)NC(=O)[C@H](Cc1ccc(O)cc1)NC(=O)[C@H](CC(=O)O)NC(=O)[C@H](CO)NC(=O)[C@@H](NC(=O)[C@H](Cc1ccccc1)NC(=O)[C@@H](NC(=O)CNC(=O)[C@H](CCC(N)=O)NC(=O)C(C)(C)NC(=O)[C@@H](N)Cc1ccc(O)cc1)[C@@H](C)O)C(C)C)C(=O)N[C@@H](Cc1ccc(O)cc1)C(=O)N[C@@H](CC(C)C)C(=O)N[C@@H](CC(=O)O)C(=O)N[C@H]1CCC(=O)NCCCC[C@@H](C(=O)N[C@@H](CCC(=O)O)C(=O)N[C@@H](Cc2ccccc2)C(=O)N[C@H](C(=O)N[C@@H](CC(N)=O)C(=O)N[C@@H](Cc2c[nH]c3ccccc23)C(=O)N[C@@H](CC(C)C)C(=O)N[C@@H](CC(C)C)C(=O)N[C@@H](C)C(=O)NCC(=O)NCC(=O)N2CCC[C@H]2C(=O)N[C@@H](CO)C(=O)N[C@@H](CO)C(=O)NCC(=O)N[C@@H](C)C(=O)N2CCC[C@H]2C(=O)N2CCC[C@H]2C(=O)N2CCC[C@H]2C(=O)N[C@@H](CO)C(=O)N[C@@H](CS)C(N)=O)C(C)C)NC(=O)[C@H](C)NC(=O)[C@H](C)NC(=O)[C@H](CCC(N)=O)NC1=O [mt-199] (H-Y[Aib]QGTFVSDYSIYLDEQAAKEFVNWLLAGGPSSGAPPPSC-NH2; lactam 16-20; N-terminus assumed) | 31.31 | 1.04 | 0.214 | 5.51 | EC50 (GLP-1 receptor; GLP-1 Receptor EC50, nM, Table 1): 2.8 nM; EC50 (GIP receptor; GIP Receptor EC50, nM, Table 1): 0.526 nM
CC(C)C[C@H](NC(=O)[C@H](CC(C)C)NC(=O)[C@H](Cc1c[nH]c2ccccc12)NC(=O)[C@H](CC(N)=O)NC(=O)[C@@H](NC(=O)[C@H](Cc1ccccc1)NC(=O)[C@H](CCC(=O)O)NC(=O)[C@@H]1CCCCNC(=O)CC[C@H](NC(=O)[C@H](CC(=O)O)NC(=O)[C@H](CC(C)C)NC(=O)[C@H](Cc2ccc(O)cc2)NC(=O)[C@H](CCCCN)NC(=O)[C@H](CO)NC(=O)[C@H](Cc2ccc(O)cc2)NC(=O)[C@H](CC(=O)O)NC(=O)[C@H](CO)NC(=O)[C@@H](NC(=O)[C@H](Cc2ccccc2)NC(=O)[C@@H](NC(=O)CNC(=O)[C@H](CCC(N)=O)NC(=O)[C@H](CO)NC(=O)[C@@H](N)Cc2ccc(O)cc2)[C@@H](C)O)[C@@H](C)O)C(=O)N[C@@H](CCC(N)=O)C(=O)N[C@@H](C)C(=O)N[C@@H](C)C(=O)N1)C(C)C)C(=O)N[C@@H](C)C(=O)NCC(=O)NCC(=O)N1CCC[C@H]1C(=O)N[C@@H](CO)C(=O)N[C@@H](CO)C(=O)NCC(=O)N[C@@H](C)C(=O)N1CCC[C@H]1C(=O)N1CCC[C@H]1C(=O)N1CCC[C@H]1C(=O)N[C@@H](CO)C(N)=O [mt-127] (H-YSQGTFTSDYSKYLDEQAAKEFVNWLLAGGPSSGAPPPS-NH2; lactam 16-20; N-terminus assumed) | 718.39 | 87.75 | 0.044 | 10.51 | 
CC[C@H](C)[C@H](NC(=O)[C@H](CO)NC(=O)[C@H](Cc1ccc(O)cc1)NC(=O)[C@H](CC(=O)O)NC(=O)[C@H](CO)NC(=O)[C@@H](NC(=O)[C@H](Cc1ccccc1)NC(=O)[C@@H](NC(=O)CNC(=O)[C@H](CCC(=O)O)NC(=O)[C@H](C)NC(=O)[C@@H](N)Cc1ccc(O)cc1)[C@@H](C)O)[C@@H](C)O)C(=O)N[C@@H](Cc1ccc(O)cc1)C(=O)N[C@@H](CCSC)C(=O)N[C@@H](CC(=O)O)C(=O)N[C@H]1CCC(=O)NCCCC[C@@H](C(=O)N[C@@H](CCC(=O)O)C(=O)N[C@@H](Cc2ccccc2)C(=O)N[C@H](C(=O)N[C@@H](CC(N)=O)C(=O)N[C@@H](Cc2c[nH]c3ccccc23)C(=O)N[C@@H](CC(C)C)C(=O)N[C@@H](CC(C)C)C(=O)N[C@@H](C)C(=O)NCC(=O)NCC(=O)N2CCC[C@H]2C(=O)N[C@@H](CO)C(=O)N[C@@H](CO)C(=O)NCC(=O)N[C@@H](C)C(=O)N2CCC[C@H]2C(=O)N2CCC[C@H]2C(=O)N2CCC[C@H]2C(=O)N[C@@H](CO)C(N)=O)C(C)C)NC(=O)[C@H](C)NC(=O)[C@H](C)NC(=O)[C@H](CCC(N)=O)NC1=O [mt-142] (H-YAEGTFTSDYSIYMDEQAAKEFVNWLLAGGPSSGAPPPS-NH2; lactam 16-20; N-terminus assumed) |  | 163.41 |  | 36.36 | 
